Reference: paper PMC7604503, “Cyclic peptides can engage a single binding pocket through highly divergent modes” (Proceedings of the National Academy of Sciences of the …, 2020)
Where a SMILES comes first, the peptide text is derived from it. Bridges are numbered along the chain shown (N, C = ends).

Key:
Assay in all cases: BROMOscan competition binding assay (BromoMAX, Eurofins DiscoverX)
ATAD2A = target: T1, ATAD2A (Homo sapiens, UniProt Q6PL18); details: for Percent Control ATAD2A: compound concentration 1000 nM, lower percentage control = stronger affinity
T1 construct: purchased Eurofins DiscoverX (BROMOscan, BromoMAX)
T1 sequence (Q6PL18 1-1390): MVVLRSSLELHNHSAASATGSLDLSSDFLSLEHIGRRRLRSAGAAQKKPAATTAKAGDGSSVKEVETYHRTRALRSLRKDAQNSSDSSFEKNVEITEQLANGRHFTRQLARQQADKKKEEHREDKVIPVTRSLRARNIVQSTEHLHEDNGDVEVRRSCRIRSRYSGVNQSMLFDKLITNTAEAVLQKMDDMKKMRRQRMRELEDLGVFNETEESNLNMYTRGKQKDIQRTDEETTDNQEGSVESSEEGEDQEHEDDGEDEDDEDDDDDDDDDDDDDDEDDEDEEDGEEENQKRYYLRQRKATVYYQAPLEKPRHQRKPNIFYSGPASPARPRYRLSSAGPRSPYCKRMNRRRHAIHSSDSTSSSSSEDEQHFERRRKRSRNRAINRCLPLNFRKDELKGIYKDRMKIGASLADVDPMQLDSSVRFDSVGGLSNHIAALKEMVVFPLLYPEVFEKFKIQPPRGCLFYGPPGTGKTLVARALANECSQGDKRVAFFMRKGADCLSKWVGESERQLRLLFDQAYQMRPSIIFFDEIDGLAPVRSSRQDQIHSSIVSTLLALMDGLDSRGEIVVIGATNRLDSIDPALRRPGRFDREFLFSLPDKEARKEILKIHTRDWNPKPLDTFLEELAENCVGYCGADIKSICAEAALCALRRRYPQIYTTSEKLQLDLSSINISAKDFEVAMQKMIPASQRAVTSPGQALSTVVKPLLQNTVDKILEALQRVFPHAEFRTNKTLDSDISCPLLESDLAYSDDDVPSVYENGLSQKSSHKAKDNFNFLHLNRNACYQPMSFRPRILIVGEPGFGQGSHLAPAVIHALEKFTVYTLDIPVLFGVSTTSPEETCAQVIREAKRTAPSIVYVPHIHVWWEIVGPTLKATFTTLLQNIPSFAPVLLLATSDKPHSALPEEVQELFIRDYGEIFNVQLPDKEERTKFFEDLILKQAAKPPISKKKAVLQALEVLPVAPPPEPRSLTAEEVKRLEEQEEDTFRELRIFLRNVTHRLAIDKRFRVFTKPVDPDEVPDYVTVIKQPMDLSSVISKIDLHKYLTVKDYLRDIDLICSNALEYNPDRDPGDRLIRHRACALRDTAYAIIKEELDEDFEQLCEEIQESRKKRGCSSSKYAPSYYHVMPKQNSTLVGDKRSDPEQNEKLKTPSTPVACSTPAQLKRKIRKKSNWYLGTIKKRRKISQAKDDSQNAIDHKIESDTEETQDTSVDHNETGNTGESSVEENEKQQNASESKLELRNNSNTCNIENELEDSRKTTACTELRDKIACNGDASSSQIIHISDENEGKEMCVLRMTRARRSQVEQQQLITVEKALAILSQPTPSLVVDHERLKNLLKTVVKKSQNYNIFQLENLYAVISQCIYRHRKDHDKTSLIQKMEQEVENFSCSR

BRDT(2) = target: T2, BRDT(2) (Homo sapiens, UniProt Q58F21); details: for Percent Control BRDT(2): compound concentration 1000 nM, lower percentage control = stronger affinity
T2 construct: BRDT(2); purchased Eurofins DiscoverX (BROMOscan, BromoMAX)

TRIM24(PHD,Bromo.) = target: T3, TRIM24(PHD,Bromo.) (Homo sapiens, UniProt O15164); details: for Percent Control TRIM24(PHD,Bromo.): compound concentration 1000 nM, lower percentage control = stronger affinity
T3 construct: purchased Eurofins DiscoverX (BROMOscan, BromoMAX)
T3 sequence (O15164 824-1006 limits assumed): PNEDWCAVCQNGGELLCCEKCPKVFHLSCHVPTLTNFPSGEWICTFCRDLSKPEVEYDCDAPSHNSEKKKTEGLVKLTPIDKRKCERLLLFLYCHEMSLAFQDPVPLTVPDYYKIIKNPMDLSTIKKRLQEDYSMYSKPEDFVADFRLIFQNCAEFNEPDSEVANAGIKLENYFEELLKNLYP

TRIM33(PHD,Bromo.) = test system: TRIM33(PHD,Bromo.); parameters: species or system human; details: compound concentration 1000 nM; lower percentage control = stronger affinity
BRPF1 = target: T4, BRPF1 (Homo sapiens, UniProt P55201); details: for Percent Control BRPF1: compound concentration 1000 nM, lower percentage control = stronger affinity
T4 construct: purchased Eurofins DiscoverX (BROMOscan, BromoMAX)
T4 sequence (P55201 1-1214): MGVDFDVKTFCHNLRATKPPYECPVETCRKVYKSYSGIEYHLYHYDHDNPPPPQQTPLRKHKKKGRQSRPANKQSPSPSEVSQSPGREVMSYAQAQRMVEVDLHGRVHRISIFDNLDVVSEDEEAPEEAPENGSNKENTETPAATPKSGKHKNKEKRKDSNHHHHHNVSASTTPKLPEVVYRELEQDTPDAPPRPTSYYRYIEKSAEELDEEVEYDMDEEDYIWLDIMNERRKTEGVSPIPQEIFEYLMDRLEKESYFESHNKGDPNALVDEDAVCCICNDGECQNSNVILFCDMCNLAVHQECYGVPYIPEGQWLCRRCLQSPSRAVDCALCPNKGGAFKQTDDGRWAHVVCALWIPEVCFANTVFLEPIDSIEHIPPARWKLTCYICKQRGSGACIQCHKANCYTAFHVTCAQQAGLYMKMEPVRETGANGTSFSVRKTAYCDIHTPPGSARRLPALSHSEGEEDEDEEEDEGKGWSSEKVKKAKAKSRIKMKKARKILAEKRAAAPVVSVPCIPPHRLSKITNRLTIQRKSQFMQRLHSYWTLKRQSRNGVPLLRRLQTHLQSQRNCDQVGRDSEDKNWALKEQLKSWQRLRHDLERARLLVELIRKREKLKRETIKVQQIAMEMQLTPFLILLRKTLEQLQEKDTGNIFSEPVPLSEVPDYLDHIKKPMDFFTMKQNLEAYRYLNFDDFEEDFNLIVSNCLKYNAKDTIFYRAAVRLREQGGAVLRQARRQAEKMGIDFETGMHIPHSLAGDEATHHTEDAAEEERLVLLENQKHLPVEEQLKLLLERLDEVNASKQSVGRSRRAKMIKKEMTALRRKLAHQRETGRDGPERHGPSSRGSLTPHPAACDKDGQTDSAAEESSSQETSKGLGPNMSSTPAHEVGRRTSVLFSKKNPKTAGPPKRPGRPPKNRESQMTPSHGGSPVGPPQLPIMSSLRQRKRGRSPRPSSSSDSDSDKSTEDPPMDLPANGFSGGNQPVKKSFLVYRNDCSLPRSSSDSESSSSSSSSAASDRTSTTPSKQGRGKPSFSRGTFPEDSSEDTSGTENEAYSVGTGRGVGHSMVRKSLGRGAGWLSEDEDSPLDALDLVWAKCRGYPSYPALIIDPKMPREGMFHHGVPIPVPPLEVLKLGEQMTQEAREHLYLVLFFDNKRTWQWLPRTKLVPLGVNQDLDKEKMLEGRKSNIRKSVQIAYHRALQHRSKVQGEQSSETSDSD

PBRM1(5) = target: T5, PBRM1(5) (Homo sapiens, UniProt Q86U86); details: for Percent Control PBRM1(5): compound concentration 1000 nM, lower percentage control = stronger affinity
T5 construct: PBRM1(5); purchased Eurofins DiscoverX (BROMOscan, BromoMAX)

| SMILES | Percent Control ATAD2A (ATAD2A) | Percent Control BRDT(2) (BRDT(2)) | Percent Control TRIM24(PHD,Bromo.) (TRIM24(PHD,Bromo.)) | Percent Control TRIM33(PHD,Bromo.) (TRIM33(PHD,Bromo.)) | Percent Control BRPF1 (BRPF1) | Percent Control PBRM1(5) (PBRM1(5)) | percent of control binding at 1 µM (ATAD2A) | percent of control binding at 1 µM (BRDT(2)) | percent of control binding at 1 µM (TRIM24(PHD,Bromo.)) | remaining binding at 1 µM (BRPF1; read-out: Percent Control BRPF1) | remaining binding at 1 µM (PBRM1(5); read-out: Percent Control PBRM1(5)) |
| --- | --- | --- | --- | --- | --- | --- | --- | --- | --- | --- | --- |
| CC[C@H](C)[C@@H]1NC(=O)[C@H]([C@@H](C)O)NC(=O)[C@H](CCCCN)NC(=O)[C@H](Cc2c[nH]c3ccccc23)NC(=O)CSC[C@@H](C(N)=O)NC(=O)[C@H](CCC(N)=O)NC(=O)[C@H](CCCCNC(C)=O)NC(=O)[C@H]([C@@H](C)O)NC(=O)[C@H](CCCNC(=N)N)NC(=O)[C@H](Cc2c[nH]c3ccccc23)NC(=O)[C@H]([C@@H](C)O)NC(=O)[C@H](CCCCNC(C)=O)NC(=O)CNC(=O)[C@H](CCCCNC(C)=O)NC1=O [3.1B] ({CH2CO}-WKTIK(Ac)GK(Ac)TWRTK(Ac)QC-NH2; thioether N-14) | 92% | 100% | 91% | 100% | 100% | 100% |  |  |  |  |  |
| CC[C@H](C)[C@H](NC(=O)[C@H](CCCNC(=N)N)NC(=O)[C@H](CCCCNC(C)=O)NC(=O)[C@H](CCCNC(=N)N)NC(=O)[C@H](CC(C)C)NC(=O)[C@@H]1CSCC(=O)N[C@@H](Cc2c[nH]c3ccccc23)C(=O)N[C@@H](CCCCNC(C)=O)C(=O)NCC(=O)N[C@@H](Cc2ccc(O)cc2)C(=O)N[C@@H](CC(C)C)C(=O)N1)C(=O)N[C@@H](CCC(N)=O)C(=O)N[C@@H](CCCNC(=N)N)C(=O)N[C@H](C(=O)N[C@@H](Cc1ccc(O)cc1)C(=O)N[C@@H](CC(N)=O)C(N)=O)[C@@H](C)O [4.2C] ({CH2CO}-WK(Ac)GYLCLRK(Ac)RIQRTYN-NH2; thioether N-6) |  |  |  | 100% |  |  | 85% | 92% | 98% | 100% | 90% |
| CC[C@H](C)[C@@H]1NC(=O)[C@H](Cc2c[nH]c3ccccc23)NC(=O)[C@H](Cc2c[nH]c3ccccc23)NC(=O)CSC[C@@H](C(N)=O)NC(=O)CNC(=O)[C@H](CCCCNC(C)=O)NC(=O)[C@H](CCCCN)NC(=O)[C@H](C(C)C)NC(=O)[C@H](CCCCNC(C)=O)NC(=O)[C@@H]2CCCN2C(=O)[C@H]([C@@H](C)CC)NC1=O [3.1C] ({CH2CO}-WWIIPK(Ac)VKK(Ac)GC-NH2; thioether N-11) | 92% | 4.9% | 94% | 100% | 100% | 89% |  |  |  |  |  |
